Results: PMC12040169 (PLOS Biology, 2025)
Values after ≈ are worked out from the molar mass of the structure shown.

How the values were obtained:
in vitro [1] = assay: in vitro; design: Viability of infected HeLa host cells, resazurin conversion, bulk resorufin fluorescence relative to DMSO; conditions: human, hela cells; bulk resorufin, mean of 3
[2] = tested on: T1, CTL2-GFP (C. trachomatis L2/434/Bu, GFP-expressing); assay: microbe, parasite or virus in culture; design: C. trachomatis growth in HeLa, dose-response, mean of bulk GFP fluorescence and imaged total inclusion area; conditions: Chlamydia trachomatis, HeLa, 28.5 h; mean of GFP and inclusion area
T1 construct: L2/434/Bu, GFP-expressing
From the text: (§1) We screened a library of 36,785 small molecules displaying drug-like properties and covering a wide chemical space (Fig 1A and S2A Data). In this process, we also complemented the assay described above with an imaging-based readout (Fig 1B). After measurements of bulk GFP and resorufin fluorescence, cells were fixed, stained with the DNA dye Hoechst, and imaged at a high-content imaging platform to detect chlamydial inclusions (GFP) and host cell nuclei (Hoechst). The total area and number of inclusions in individual wells and the number of nuclei then served as additional proxies for chlamydial growth and host cell viability. […] MICs were calculated as described above.

[3] = tested on: T1, CTL2-GFP (C. trachomatis L2/434/Bu, GFP-expressing); assay: microbe, parasite or virus in culture; design: species or system HeLa; C. trachomatis growth in HeLa, dose-response, mean of bulk GFP fluorescence and imaged total inclusion area; conditions: Chlamydia trachomatis, 28.5 h; mean of GFP and inclusion area
From the text: as §1

in vitro [4] = conditions: human, hela cells, % viability
HeLa = conditions: bulk resorufin, single well, 28.5 h, 10 µM, Bulk resorufin fluorescence

| Structure (SMILES) | viability at 28.5 h, 0.000416667 µM (in vitro [1]) [%] | viability at 28.5 h, 0.00125 µM (in vitro [1]) [%] | viability at 28.5 h, 0.00375 µM (in vitro [1]) [%] | viability at 28.5 h, 0.0123333 µM (in vitro [1]) [%] | viability at 28.5 h, 0.037 µM (in vitro [1]) [%] | viability at 28.5 h, 0.111 µM (in vitro [1]) [%] | viability at 28.5 h, 0.333 µM (in vitro [1]) [%] | viability at 28.5 h, 1 µM (in vitro [1]) [%] | viability at 28.5 h, 3 µM (in vitro [1]) [%] | viability at 28.5 h, 10 µM (in vitro [1]) [%] | viability at 28.5 h, 30 µM (in vitro [1]) [%] | IC50 [2] [µM] | MIC [3] [µM] | viability at 28.5 h, 10 µM (in vitro [4]) [%] | % viability (HeLa) [%] |
| --- | --- | --- | --- | --- | --- | --- | --- | --- | --- | --- | --- | --- | --- | --- | --- |
| CCCCc1ccc(Nc2csc(N)n2)cc1 [c11e] | 97.7 | 95.9 | 96.4 | 104 | 92.8 | 97.8 | 99.6 | 102 | 92.4 | 92.8 | 69.9 | 0.956 | 3.11 (≈ 0.768 µg/mL) | – | – |
| FC(F)(F)CCN1CCC2(CC1)NCCc1c2[nH]c2ccc(Cl)cc12 [c34e] | 86.8 | 91.2 | 88.2 | 90.3 | 88.5 | 93.2 | 89.1 | 91.8 | 88.3 | 93.9 | 71.8 | 3.31 | 11.9 (≈ 4.42 µg/mL) | – | – |
| Oc1c(CN2CCN(c3ccc(F)cc3)CC2)cc(Br)c2cccnc12 [c43e] | 97.2 | 91.7 | 92.6 | 88.5 | 91.8 | 86.8 | 90 | 86.1 | 88.5 | 84.3 | 85.2 | 5.48 | 9.58 (≈ 3.99 µg/mL) | – | – |
| Cc1ccc2[nH]c3c(c2c1)CCOC31CCN(Cc2ccccc2-c2ccccc2)CC1 [c22e] | 98.6 | 89.4 | 94.8 | 87.6 | 94.6 | 86.6 | 87.8 | 85.7 | 85.7 | 86.9 | 70.7 | 1.8 | 3.81 (≈ 1.61 µg/mL) | – | – |
| Cn1cc(C(c2ccc(OCC(=O)O)cc2)c2cn(C)c3ccccc23)c2ccccc21 [c48e] | 87.9 | 89.6 | 87.2 | 88.7 | 88.5 | 89.5 | 89.6 | 93.9 | 93.8 | 97.6 | 87.9 | 6.69 | 8.4 (≈ 3.56 µg/mL) | – | – |
| CC(Cc1nc(-c2nccn2C)cs1)n1cc(Cl)cn1 (stereo not shown) [c14e] | 104 | 110 | 107 | 105 | 103 | 106 | 103 | 111 | 108 | 110 | 110 | 1.03 | 3.65 (≈ 1.12 µg/mL) | – | – |
| CCCCc1ccc(NC(=N)Nc2nc(C)cc(C)n2)cc1 [c33e] | 90.9 | 88 | 91.3 | 91.5 | 93.1 | 92.6 | 94.3 | 88.2 | 98.2 | 101 | 112 | 3.25 | 11.7 (≈ 3.49 µg/mL) | – | – |
| CCOc1ccsc1C(=O)NC1Cc2ccccc2C1 [c16e] | 89.7 | 86.9 | 89.9 | 85.4 | 87.1 | 85.4 | 87.5 | 84.6 | 84.5 | 84.3 | 87 | 1.19 | 3.2 (≈ 0.92 µg/mL) | – | – |
| CCCN(CCC)CCc1cccc2c1CCN2C(=O)c1cc2ccccc2s1 [c15e] | 87.3 | 89.2 | 89.8 | 88.8 | 85.5 | 94.8 | 94.4 | 90.6 | 91.2 | 99.9 | 91.3 | 1.15 | 3.22 (≈ 1.31 µg/mL) | – | – |
| FC(F)(F)c1ccc(N2CCNCC2)nc1OCc1ccc2c(c1)OCCO2 [c46e] | 85.8 | 88.5 | 88.8 | 94.6 | 90.4 | 93.4 | 88.9 | 91.1 | 94 | 97.2 | 11.7 | 6.17 | 11.3 (≈ 4.47 µg/mL) | – | – |
| CCC(c1ccc(F)cc1)N(C)C(=O)Cn1cc(C(=O)NC2CCCCC2)ccc1=O (stereo not shown) [c44e] | 93.4 | 91.8 | 93.8 | 89.2 | 90.8 | 86.7 | 87.7 | 85.4 | 87.9 | 83.2 | 87.2 | 5.83 | – | – | – |
| FC(F)(F)c1ccc(Sc2ccccn2)nc1 [CBK093785] | – | – | – | – | – | – | – | – | – | – | – | – | – | 100 | 111 |
| CCOC(=O)C1=C(C)NC(=O)NC1c1ccc(Cl)cc1Cl (stereo not shown) [CBK072057] | – | – | – | – | – | – | – | – | – | – | – | – | – | 93.2 | 91 |
| O=C(c1cnc2[nH][nH]c(=O)c2c1)c1ccccc1O [CBK288082] | – | – | – | – | – | – | – | – | – | – | – | – | – | 90.5 | 110 |
| O=C(O)c1cccc(Sc2ncccc2C(F)(F)F)c1 [CBK093589] | – | – | – | – | – | – | – | – | – | – | – | – | – | 103 | 108 |
| O=C(NC[C@H]1CCCN(C(=O)c2cccnc2)C1)c1cccs1 [CBK284264] | – | – | – | – | – | – | – | – | – | – | – | – | – | 81.6 | 90.3 |
| C[C@H]1CN2C[C@H](O)CC2CN1Cc1ccc(Cl)c(Cl)c1 (stereo partly shown) [CBK285404] | – | – | – | – | – | – | – | – | – | – | – | – | – | 111 | 94.3 |
